Data on twelve compounds can be found in patent publication EP4678638A1, “NEW E3 UBIQUITIN LIGASE LIGAND, PROTEIN DEGRADATION AGENT AND USE THEREOF” (priority 2023, dated 2024).

One experiment deals with H2228. Nature of the experiment: CCK-8 proliferation, NCI-H2228 (H2228). The experiment is classed as cell-based. Particulars: Homo sapiens, NCI-H2228; Table B6, compounds designed based on the ALK inhibitors; H2228 cells; read-out: Inhibitory activity (IC50, nM) on tumor cell proliferation, H2228. In a few lines: (§1)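 Cells seeded, then after 24 h treated with 10 concentrations (top 10 µM, 5-fold serial dilution) for a line-specific time at 37°C, 5% CO2. Viability read by CCK-8; IC50 fitted from growth-inhibition curves.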

The subject of another experiment is MDA-MB-231. Nature of the experiment: CCK-8 proliferation, MDA-MB-231. Type of experiment: cell-based. Particulars: Homo sapiens; Table B6, compounds designed based on the ALK inhibitors; MDA-MB-231 cells; read-out: Inhibitory activity (IC50, nM) on tumor cell proliferation, MDA-MB-231. The procedure:
The tumor cells used herein were cultured in a cell culture medium listed in table A1 at 37°C in an incubator with 5% CO2. Prior to experimentation, all cell lines used were correctly identified by STR profiling, and tested negative for mycoplasma contamination using a mycoplasma detection kit through routine screenings. Table A1. Tumor cells and cell culture medium used in the present disclosure
IC50 values of the compounds of the present disclosure (including the compounds in Table 1, and compounds of examples) were measured using the Meilun Cell Counting Kit-8 kit from Dalian Meilun Biotech Co., Ltd. Assay details are as follows: tumor cells were seeded in a 96-well plate at a density listed in Table A2. After 24h, 100 µL of the inoculated cells were treated with 0.5µL of the compounds of the present disclosure (including the compounds in Tables 1 and 2, and compounds of examples) at 10 different successively decreasing concentrations (starting at the highest concentration of 10µM; 5-fold serial dilutions). After the cells were treated with the compounds of the present disclosure for a period of time, the cell viability detection reagent was added to the culture medium for cell viability assessment according to the instructions provided with the CCK-8 kit. […] The growth inhibition of the compounds of the present disclosure on cells was plotted by Prism Graphpad software, and the IC50 values of the compounds of the present disclosure were calculated therefrom. […] Seeding protocol and treatment time for tumor cells

A further experiment relates to SR. Nature of the experiment: CCK-8 proliferation, SR. The experiment is classed as cell-based, Human. Particulars: Homo sapiens; Table B6, compounds designed based on the ALK inhibitors; SR cells; read-out: Inhibitory activity (IC50, nM) on tumor cell proliferation, SR. In a few lines:
as §1

For another experiment, the target named is T1, ALK (Homo sapiens, UniProt Q96SW2+Q9HC35+Q9UM73).
T1 construct: evaluate the effects of the compounds of the present disclosure on the expression of target proteins in cells; endogenous in cells; host or cells: H2228
Nature of the experiment: Western blot degradation of ALK (H2228 Cell). The experiment is classed as cell-based. Particulars: Table D5. In a few lines: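 Quantification by ImageJ densitometry of Western blot bands: DC50 is the fitted concentration halving band intensity relative to DMSO. Percent remaining uses internal-control normalization, and degradation rate is its complement.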
On the technique in general: Immunoblotting shows a protein as a band on a membrane.

The next experiment relates to MCF7. Briefly: CCK-8 proliferation, MCF7 (MCF-7). Particulars: Homo sapiens, MCF7; Table B6, compounds designed based on the ALK inhibitors; MCF-7 cells; read-out: Inhibitory activity (IC50, nM) on tumor cell proliferation, MCF-7. The experiment is classed as cell-based. In a few lines:
as §1

The next experiment concerns H1975. Nature of the experiment: CCK-8 proliferation, NCI-H1975 (H1975). Type of experiment: cell-based, Human. Particulars: Homo sapiens, NCI-H1975; Table B6, compounds designed based on the ALK inhibitors; H1975 cells; read-out: Inhibitory activity (IC50, nM) on tumor cell proliferation, H1975. In a few lines: as §1
For a further experiment, the system named is MM.1S. Briefly: CCK-8 proliferation, MM.1S. The experiment is classed as cell-based. Particulars: Homo sapiens, MM1.S; Table B6, compounds designed based on the ALK inhibitors; MM.1S cells; read-out: Inhibitory activity (IC50, nM) on tumor cell proliferation, MM.1S. In a few lines:
as §1

SMILES strings stand for the structures.

T1 sequence (Q9HC35+Q9UM73 fused): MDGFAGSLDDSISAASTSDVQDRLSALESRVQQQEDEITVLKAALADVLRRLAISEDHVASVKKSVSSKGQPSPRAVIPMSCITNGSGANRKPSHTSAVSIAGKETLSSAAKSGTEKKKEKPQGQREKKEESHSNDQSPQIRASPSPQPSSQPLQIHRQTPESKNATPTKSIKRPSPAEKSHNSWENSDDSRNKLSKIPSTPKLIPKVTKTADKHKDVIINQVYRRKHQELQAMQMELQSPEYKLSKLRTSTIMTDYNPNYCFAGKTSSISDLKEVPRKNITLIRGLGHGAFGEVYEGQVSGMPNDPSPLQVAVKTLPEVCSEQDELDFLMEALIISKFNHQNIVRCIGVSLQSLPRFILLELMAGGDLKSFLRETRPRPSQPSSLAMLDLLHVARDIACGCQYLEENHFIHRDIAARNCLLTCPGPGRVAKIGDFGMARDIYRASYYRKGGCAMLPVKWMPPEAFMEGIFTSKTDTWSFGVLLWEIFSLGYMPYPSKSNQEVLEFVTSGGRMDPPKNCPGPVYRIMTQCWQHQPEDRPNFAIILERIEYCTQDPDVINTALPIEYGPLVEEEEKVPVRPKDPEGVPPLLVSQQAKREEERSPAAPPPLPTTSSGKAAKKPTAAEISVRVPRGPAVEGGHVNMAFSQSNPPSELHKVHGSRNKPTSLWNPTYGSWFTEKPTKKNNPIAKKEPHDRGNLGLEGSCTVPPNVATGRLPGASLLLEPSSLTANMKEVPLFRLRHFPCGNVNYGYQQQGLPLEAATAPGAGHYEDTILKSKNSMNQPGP
T1 sequence (Q96SW2 whole entry): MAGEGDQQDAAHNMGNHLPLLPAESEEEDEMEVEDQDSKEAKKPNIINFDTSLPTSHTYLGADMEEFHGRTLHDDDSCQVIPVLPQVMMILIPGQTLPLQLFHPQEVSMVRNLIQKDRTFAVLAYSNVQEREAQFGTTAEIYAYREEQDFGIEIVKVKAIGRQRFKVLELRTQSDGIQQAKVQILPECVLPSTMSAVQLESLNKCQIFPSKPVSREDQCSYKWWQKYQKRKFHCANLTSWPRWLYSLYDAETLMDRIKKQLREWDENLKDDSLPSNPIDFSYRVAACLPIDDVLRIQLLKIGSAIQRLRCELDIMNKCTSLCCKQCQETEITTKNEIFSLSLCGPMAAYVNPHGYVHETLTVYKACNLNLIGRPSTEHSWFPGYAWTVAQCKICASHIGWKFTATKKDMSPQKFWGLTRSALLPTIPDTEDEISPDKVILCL
T1 sequence (Q16531 whole entry partner): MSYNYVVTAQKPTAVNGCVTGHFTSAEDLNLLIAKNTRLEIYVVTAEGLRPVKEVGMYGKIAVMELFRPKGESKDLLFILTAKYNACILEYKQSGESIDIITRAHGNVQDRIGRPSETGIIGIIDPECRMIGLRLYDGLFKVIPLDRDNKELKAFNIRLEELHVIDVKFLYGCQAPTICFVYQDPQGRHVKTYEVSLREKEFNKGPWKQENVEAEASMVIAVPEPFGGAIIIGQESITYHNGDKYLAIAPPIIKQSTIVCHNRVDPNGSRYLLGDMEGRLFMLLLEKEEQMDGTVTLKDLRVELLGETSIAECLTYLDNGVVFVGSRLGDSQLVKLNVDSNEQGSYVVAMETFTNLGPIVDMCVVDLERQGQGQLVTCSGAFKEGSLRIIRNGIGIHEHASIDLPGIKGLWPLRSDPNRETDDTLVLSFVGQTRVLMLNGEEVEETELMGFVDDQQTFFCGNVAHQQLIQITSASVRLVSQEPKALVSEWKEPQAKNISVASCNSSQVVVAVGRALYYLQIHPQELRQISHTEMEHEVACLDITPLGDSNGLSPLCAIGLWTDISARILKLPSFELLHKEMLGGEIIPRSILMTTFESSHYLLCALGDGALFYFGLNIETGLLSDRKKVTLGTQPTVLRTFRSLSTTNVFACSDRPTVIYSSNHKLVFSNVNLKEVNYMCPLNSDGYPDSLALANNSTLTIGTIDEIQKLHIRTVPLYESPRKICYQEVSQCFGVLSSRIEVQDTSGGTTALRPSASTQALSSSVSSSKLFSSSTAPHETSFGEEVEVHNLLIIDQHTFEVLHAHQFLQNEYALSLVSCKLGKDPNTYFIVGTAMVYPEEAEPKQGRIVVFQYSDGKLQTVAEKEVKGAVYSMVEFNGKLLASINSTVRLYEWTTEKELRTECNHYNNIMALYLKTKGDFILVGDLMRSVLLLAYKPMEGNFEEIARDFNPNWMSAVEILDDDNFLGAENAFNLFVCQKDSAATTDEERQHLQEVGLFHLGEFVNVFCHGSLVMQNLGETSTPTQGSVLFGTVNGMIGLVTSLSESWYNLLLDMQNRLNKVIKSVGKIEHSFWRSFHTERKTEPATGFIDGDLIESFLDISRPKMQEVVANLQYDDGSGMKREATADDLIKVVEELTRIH

Turning to `CCc1cc2c(cc1N1CCC(N3CCN(Cc4ccc(N5CCC(=O)NC5=O)cc4F)CC3)CC1)C(C)(C)c1[nH]c3cc(C#N)ccc3c1C2=O` [GT-07309, 8-(4-(4-(4-(2,4-dioxotetrahydropyrimidin-1(2H)-yl)-2-fluorobenzyl)piperazin-1-yl)piperidin-1-yl)-9-ethyl-6,6-dimethyl-11-oxo-6,11-dihydro-5H-benzo[b]carbazole-3-carbonitrile], the IC50 in the experiment with H2228 lay within 100 to 500 nM; in the experiment with MDA-MB-231 it was 500 to 1000 nM; in the experiment on SR, 10 to 50 nM. Also, the “Degradation of substrate protein ALK (substrate protein remaining %)” value (“Degradation … (substrate protein remaining %)” below) on ALK is reported as “A (A is defined as 0% ≤ substrate protein remaining % ≤ 80%)”.
As for `CCc1cc2c(cc1N1CCC(N3CCN(Cc4cccc(N5CCC(=O)NC5=O)c4)CC3)CC1)C(C)(C)c1[nH]c3cc(C#N)ccc3c1C2=O` [GT-07310, 8-(4-(4-(3-(2,4-dioxotetrahydropyrimidin-1(2H)-yl)benzyl)piperazin-1-yl)piperidin-1-yl)-9-ethyl-6,6-dimethyl-11-oxo-6,11-dihydro-5H-benzo[b]carbazole-3-carbonitrile], the IC50 in the experiment on H2228 was 100 to 500 nM; in the experiment on MDA-MB-231, 500 to 1000 nM; in the experiment with SR, 1 to 10 nM; in the experiment with MCF7, 500 to 1000 nM. Also, on ALK, the “Degradation … (substrate protein remaining %)” value is on record as “A (A is defined as 0% ≤ substrate protein remaining % ≤ 80%)”.
Take `COc1cc(N2CCC(N3CCN(Cc4ccc(C5CCC(=O)NC5=O)cc4)CC3)CC2)ccc1Nc1ncc(Cl)c(Nc2ccccc2P(C)(C)=O)n1` (stereo not shown) [GT-07602, 3-(4-((4-(1-(4-((5-chloro-4-((2-(dimethylphosphoryl)phenyl)amino)pyrimidin-2-yl)amino)-3-methoxyphenyl)piperidin-4-yl)piperazin-1-yl)methyl)phenyl)piperidine-2,6-dione]: the IC50 in the experiment on H1975 was in the range of 100 to 500 nM; in the experiment with H2228 it was 10 to 50 nM; in the experiment on MDA-MB-231 it was 100 to 500 nM; in the experiment with MM.1S it was 100 to 500 nM; in the experiment with SR, 1 to 10 nM; in the experiment with MCF7 it was 100 to 500 nM.
As for `COc1cc(N2CCC(N3CCN(Cc4cccc(N5CCC(=O)NC5=O)c4)CC3)CC2)ccc1Nc1ncc(Cl)c(Nc2ccccc2P(C)(C)=O)n1` [GT-07604, 1-(3-((4-(1-(4-((5-chloro-4-((2-(dimethylphosphoryl)phenyl)amino)pyrimidin-2-yl)amino)-3-methoxyphenyl)piperidin-4-yl)piperazin-1-yl)methyl)phenyl)dihydropyr imidine-2,4(1H,3H)-dione], the IC50 lay in the range of 100 to 500 nM with H1975; 10 to 50 nM in the experiment with H2228; 500 to 1000 nM in the experiment on MDA-MB-231; 500 to 1000 nM in the experiment on MM.1S; 1 to 10 nM in the experiment with SR; 100 to 500 nM in the experiment with MCF7.
Take `COc1cc(N2CCC(N3CCN(Cc4ccc(N5CCC(=O)NC5=O)cn4)CC3)CC2)ccc1Nc1ncc(Cl)c(Nc2ccccc2P(C)(C)=O)n1` [GT-07606, 1-(6-((4-(1-(4-((5-chloro-4-((2-(dimethylphosphoryl)phenyl)amino)pyrimidin-2-yl)amino)-3-methoxyphenyl)piperidin-4-yl)piperazin-1-yl)methyl)pyridin-3-yl)dihydropyrimidine-2,4(1H,3H)-dione]: the IC50 was 100 to 500 nM with H1975; 50 to 100 nM with H2228; 100 to 500 nM with MDA-MB-231; 500 to 1000 nM with MM.1S; 1 to 10 nM in the experiment with SR; 100 to 500 nM in the experiment on MCF7.
`COc1cc(N2CCC(N3CCN(Cc4ccnc(C5CCC(=O)NC5=O)c4)CC3)CC2)ccc1Nc1ncc(Cl)c(Nc2ccccc2P(C)(C)=O)n1` (stereo not shown) [GT-07612, 3-(4-((4-(1-(4-((5-chloro-4-((2-(dimethylphosphoryl)phenyl)amino)pyrimidin-2-yl)amino)-3-methoxyphenyl)piperidin-4-yl)piperazin-1-yl)methyl)pyridin-2-yl)piperidine-2,6-dione]: the IC50 in the experiment on H1975 lay within 100 to 500 nM; in the experiment with H2228, 50 to 100 nM; in the experiment with MDA-MB-231, 500 to 1000 nM; in the experiment on SR, 1 to 10 nM. Moreover, the “Degradation … (substrate protein remaining %)” value on ALK is reported as “A (A is defined as 0% ≤ substrate protein remaining % ≤ 80%)”.
In the case of `COc1cc(N2CCC(N(C)Cc3cccc(N4CCC(=O)NC4=O)c3)CC2)ccc1Nc1ncc(Cl)c(Nc2ccccc2P(C)(C)=O)n1` [GT-07616, 1-(3-(((1-(4-((5-chloro-4-((2-(dimethylphosphoryl)phenyl)amino)pyrimidin-2-yl)amino)-3-methoxyphenyl)piperidin-4-yl)(methyl)amino)methyl)phenyl)dihydropyrimidine-2,4(1H,3H)-dione], the IC50 in the experiment on H1975 fell in the range of 100 to 500 nM; with H2228, 10 to 50 nM; with MDA-MB-231, 500 to 1000 nM; in the experiment with MM.1S it was 500 to 1000 nM; with SR, 1 to 10 nM; in the experiment with MCF7 it was 100 to 500 nM.
For the compound `COc1cc(N2CCC(N(C)Cc3cncc(N4CCC(=O)NC4=O)c3)CC2)ccc1Nc1ncc(Cl)c(Nc2ccccc2P(C)(C)=O)n1` [GT-07695, 1-(5-(((1-(4-((5-chloro-4-((2-(dimethylphosphoryl)phenyl)amino)pyrimidin-2-yl)amino)-3-methoxyphenyl)piperidin-4-yl)(methyl)amino)methyl)pyridin-3-yl)dihydropyrimidine-2,4(1H,3H)-dione], the IC50 is 500 to 1000 nM in the experiment with H1975; 100 to 500 nM in the experiment with H2228; 500 to 1000 nM with MDA-MB-231; 100 to 500 nM in the experiment on MM.1S; 10 to 50 nM in the experiment on SR; 100 to 500 nM in the experiment on MCF7.
In the case of `CCc1cc2c(cc1N1CCC(N3CCN(Cc4cncc(N5CCC(=O)NC5=O)c4)CC3)CC1)C(C)(C)c1[nH]c3cc(C#N)ccc3c1C2=O` [GT-07702, 8-(4-(4-((5-(2,4-dioxotetrahydropyrimidin-1(2H)-yl)pyridin-3-yl)methyl)piperazin-1-yl)piperidin-1-yl)-9-ethyl-6,6-dimethyl-11-oxo-6,11-dihydro-5H-benzo[b]carbazole-3-carbonitrile], the IC50 with H1975 fell in the range of 500 to 1000 nM; in the experiment with H2228, 100 to 500 nM; in the experiment with MDA-MB-231 it was 500 to 1000 nM; in the experiment with MM.1S, 500 to 1000 nM; in the experiment on SR, 1 to 10 nM; with MCF7, 500 to 1000 nM.
Turning to `COc1cc(N2CCN(Cc3cncc(C4CCC(=O)NC4=O)c3)CC2)ccc1Nc1ncc(Cl)c(Nc2ccccc2P(C)(C)=O)n1` (stereo not shown) [GT-07714, 3-(5-((4-(4-((5-chloro-4-((2-(dimethylphosphoryl)phenyl)amino)pyrimidin-2-yl)amino)-3-methoxyphenyl)piperazin-1-yl)methyl)pyridin-3-yl)piperidine-2,6-dione], the IC50 was in the range of 100 to 500 nM in the experiment with H2228, 100 to 500 nM with MDA-MB-231, 10 to 50 nM with SR and 50 to 100 nM with MCF7. Further, on ALK, the “Degradation … (substrate protein remaining %)” value was “A (A is defined as 0% ≤ substrate protein remaining % ≤ 80%)”.
Consider `CCc1cc2c(cc1N1CCC(N3CCOCC3)CC1)C(C)(C)c1[nH]c3cc(C#N)ccc3c1C2=O` [alectinib, reference compound], for which the IC50 in the experiment with H1975 was in the range of 1000 to 5000 nM; with H2228 it was 5000 to 10000 nM; in the experiment on MDA-MB-231, 1000 to 5000 nM; with MM.1S, 1000 to 5000 nM; with SR it was 10 to 50 nM; in the experiment with MCF7, 5000 to 10000 nM.
`COc1cc(N2CCC(N3CCN(C)CC3)CC2)ccc1Nc1ncc(Cl)c(Nc2ccccc2P(C)(C)=O)n1` [brigatinib, reference compound]: the IC50 was more than 10000 nM in the experiment on H1975; more than 10000 nM in the experiment with H2228; 1000 to 5000 nM in the experiment with MDA-MB-231; 1000 to 5000 nM with MM.1S; 100 to 500 nM with SR; 1000 to 5000 nM with MCF7.
